Where two headings read alike, the source gives them in different places.
Assays:
[1] = Microsomal metabolic stability, human liver microsomes; format: in vitro ADME; conditions: both sexes, pooled liver microsomes; for remaining at 1 h, 0.2 μM: pH 7.4, 60 min, n = 3, read-out: %remaining in HLM; for half-life at 0.2 μM: pH 7.4, HLM, read-out: half-life (t1/2) in human liver microsomes
Method: (§1) The metabolic stability of the compounds was evaluated using mouse liver microsomes (MLM) and human liver microsomes (HLM). Each compound was tested at a final concentration of 0.2 μM to determine their half-lives. […]
(§2) Microsomal metabolic stability assay protocol
(§3) Pooled liver microsomes from male C57BL/6 mouse (MLM) and mixed gender human (HLM) were obtained from Sekisui XenoTech (Kansas City, KS). Stock solutions of compounds (1 mM) were prepared in DMSO and diluted to 10 μM working solution using phosphate buffer (100 mM, pH 7.4). Microsomes (20 mg/mL) were thawed on ice and diluted to 1 mg/mL using potassium phosphate buffer (100 mM, pH 7.4). The mixture of liver microsomes and test compounds (0.2 μM) was (1 picture or pasted object on this page, not shown here) […]
(§4) preincubated at 37°C for 10 min. Next, NADPH-regenerating system (final concentrations of 1 mM NADP+, 5 mM glucose-6-phosphate, and 1 U/mL glucose-6-phosphate dehydrogenase) as a cofactor was added to the incubation mixtures at the final volume of 1000 μL to initiate the metabolic reactions. Quenching of the metabolic reaction was performed at specific intervals: 0, 5, 15, 30, and 60 min by adding100 μL of reaction mixtures to ice-cold acetonitrile (4 volumes) containing 25 nM internal standard. The samples were kept on ice for 15 minutes, followed by protein precipitation through centrifugation at 3600 rpm for 10 minutes at4°C. Finally, the liquid chromatography-mass spectrometry/MS (LC-MS/MS) analysis was conducted on obtained supernatants. To ensure accuracy, all measurements were […]
(§5) The percent of remaining compound (%R) compared to zero sample time was obtained at each time point using LC-MS peak areas. A plot was created for the natural logarithm (ln) of % R against the incubation time to determine the elimination rate constant from the slope of the linear part. The in vitro t1/2was measured by […]
(§6) While the following Eq. (2) was used for calculating CLint (μL/min/mg): […]

[2] = Microsomal metabolic stability, mouse liver microsomes; format: in vitro ADME; conditions: male, C57BL/6, mouse, pooled liver microsomes; for remaining at 1 h, 0.2 μM: pH 7.4, 60 min, n = 3, read-out: %remaining in MLM; for half-life at 0.2 μM: pH 7.4, MLM
Method: as §1, §2, §3, §4, §5, §6

PAD1 = target: T1, PAD1 (Homo sapiens, UniProt Q9ULC6); assay: PAD1 inhibitory activity; format: biochemical; conditions: n = 3
T1 sequence (Q9ULC6 1-663): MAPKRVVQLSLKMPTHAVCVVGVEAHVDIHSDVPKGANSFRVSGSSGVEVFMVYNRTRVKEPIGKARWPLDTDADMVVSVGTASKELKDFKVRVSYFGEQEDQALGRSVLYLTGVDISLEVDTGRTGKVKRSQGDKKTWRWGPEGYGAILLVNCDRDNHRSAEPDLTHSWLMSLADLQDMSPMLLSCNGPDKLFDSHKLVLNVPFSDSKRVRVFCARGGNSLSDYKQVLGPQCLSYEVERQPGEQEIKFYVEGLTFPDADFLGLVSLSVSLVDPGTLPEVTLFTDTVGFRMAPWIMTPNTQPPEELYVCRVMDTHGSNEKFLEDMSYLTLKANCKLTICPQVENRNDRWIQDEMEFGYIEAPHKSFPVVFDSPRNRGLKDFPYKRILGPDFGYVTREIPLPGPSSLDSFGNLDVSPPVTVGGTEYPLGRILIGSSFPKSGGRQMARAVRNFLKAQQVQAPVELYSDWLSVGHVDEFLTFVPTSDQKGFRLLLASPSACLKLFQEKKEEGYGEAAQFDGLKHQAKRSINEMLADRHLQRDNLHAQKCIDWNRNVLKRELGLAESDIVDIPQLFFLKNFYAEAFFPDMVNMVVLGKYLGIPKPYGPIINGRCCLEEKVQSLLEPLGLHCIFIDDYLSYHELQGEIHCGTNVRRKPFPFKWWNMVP

PAD4 [3] = target: T2, PAD4 (Homo sapiens, UniProt Q9UM07); assay: PAD4 enzyme inhibition assay (Cayman PAD4 inhibitor screening kit, AMC); format: biochemical; conditions: n = 3; read-out: Inhibitory activity IC50 PAD4
T2 construct: purchased Cayman Chemical
Method: chromatography with ACN:H2O (0.02% formic acid) as the mobile phase, and then […]
(§7) PAD4 Enzyme Inhibition Assays
(§8) PAD4 Inhibitor Screening Assay Kit (AMC) was purchased from Cayman. Different concentrations of the test compounds were added to a 96-well plate with PAD4 enzyme enzyme and incubated at 37 °C for 10 minutes or 30 minutes. Then […] was added toinitiate the reaction and incubated at 37 °C for 20 min. The reaction was terminated by the addition of Develop solution.
Fluorescence analysis was performed at excitation wavelengths of 355 ~ 365 nm and emission wavelengths of 445 ~ 455 nm. The fluorescence signal was inversely proportional to the amount ofcitrullination. IC50 were analyzed using GraphPad Prism […]
as §2
Pooled liver microsomes from male C57BL/6 mouse (MLM) and mixed gender human (HLM) were obtained from Sekisui XenoTech (Kansas City, KS). Stock solutions of compounds (1 mM) were prepared in DMSO and diluted to 10 μM working solution using phosphate buffer (100 mM, pH 7.4). Microsomes (20 mg/mL) were thawed on ice and diluted to 1 mg/mL using potassium phosphate buffer (100 mM, pH 7.4). The mixture of liver microsomes and test compounds (0.2 μM) was (1 picture or pasted object on this page, not shown here)

A549 cells = assay: MTT cytotoxicity assay; format: cell-based; conditions: 50 μM and 5 μM, 48-hour incubation
Method: (§9) The cytotoxicity of three compounds on A549 cells was evaluated using the MTT assay.
(§10) In vitro cytotoxicity was evaluated using the MTT
(§11) (3-(4,5-dimethylthiazol-2-yl)-2,5-diphenyltetrazolium bromide) assay. Freshly trypsinized A549 cells were seeded into 96-well plates at a density of 5 × 10⁴ cells/mL, with 100 µL per well, and incubated at 37°C in a 5% CO₂ atmosphere for 12 hours. […]
(§12) concentrations of 500 μM, 50 μM, and 5 μM (25 µL per well), followed by 48-hour incubation. After this period, MTT solution (5 mg/mL) was added to each well at 25 µL per well, and the plates were incubated for an additional 4 hours. Control wells containing untreated cells were handled identically. Following incubation, the medium in the 96-well plate was removed, and 100 µL of DMSO was added to each well to dissolve the formazan crystals produced by the reduction of MTT in viable cells. Absorbance was measured using a microplate reader. Cell viability was determined using the following formula: Cell viability (%) = (OD-treated cells)/(OD […]

MTT cytotoxicity assay = format: cell-based; conditions: human, A549 cells, 48-hour incubation; for viability at 48 h, 500 µM: read-out: Cell viability of A549 cells; for IC50 at 48 h: read-out: IC50 against A549 cells (cytotoxicity)
Method: as §9, §10, §11, §12

PAD4 [4] = target: T2, PAD4; assay: Time-dependent PAD4 inhibition assay (pre-incubation 10 or 30 min); format: biochemical; conditions: BB-Cl-amidine 1 μM, 7 125 μM, 8 45 μM, n = 3
Method: To test this hypothesis, the three compounds (3, 7 and 8) were further assessed through a time-dependent inhibition assay. This assay involved pre-incubating the compounds with the PAD4 enzyme for 10 and 30 min before initiation of the enzymatic reaction.
Fig. 3. Inhibition of PAD4 with a pre-incubation of the enzyme and tested compounds for 10- or 30-min. […]
as §7, §8
Fluorescence analysis was performed at excitation wavelengths of 355 ~ 365 nm and emission wavelengths of 445 ~ 455 nm. The fluorescence signal was inversely

PAD2 = PAD2 (Homo sapiens, UniProt Q9Y2J8); assay: PAD2 inhibitory activity; format: biochemical; conditions: n = 3
[5] = cited from earlier work
[6] = read-out: half-life (t1/2) in mouse liver microsomes
[7] = rough estimation beyond the 60 min assay, read-out: t1/2 in MLM, rough estimation

T2 sequence (Q9UM07 whole entry): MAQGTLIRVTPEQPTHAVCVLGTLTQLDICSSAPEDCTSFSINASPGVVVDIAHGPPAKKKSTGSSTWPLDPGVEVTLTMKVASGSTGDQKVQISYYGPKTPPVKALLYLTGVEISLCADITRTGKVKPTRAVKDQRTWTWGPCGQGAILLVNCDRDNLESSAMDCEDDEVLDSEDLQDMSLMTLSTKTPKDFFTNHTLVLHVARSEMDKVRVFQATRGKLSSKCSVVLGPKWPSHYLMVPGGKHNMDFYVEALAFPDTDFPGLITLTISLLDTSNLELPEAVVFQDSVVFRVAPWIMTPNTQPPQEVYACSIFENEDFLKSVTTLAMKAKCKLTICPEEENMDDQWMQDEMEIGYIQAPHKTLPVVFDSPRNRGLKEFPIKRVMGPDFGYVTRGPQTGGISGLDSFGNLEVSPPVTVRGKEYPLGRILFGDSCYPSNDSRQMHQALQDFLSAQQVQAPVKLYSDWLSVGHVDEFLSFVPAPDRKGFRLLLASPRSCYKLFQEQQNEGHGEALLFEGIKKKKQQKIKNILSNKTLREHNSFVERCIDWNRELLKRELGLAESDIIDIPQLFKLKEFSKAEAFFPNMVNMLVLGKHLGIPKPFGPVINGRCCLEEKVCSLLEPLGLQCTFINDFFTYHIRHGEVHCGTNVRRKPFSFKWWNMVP
Chain of PAD2 (Q9Y2J8 whole entry, species assumed): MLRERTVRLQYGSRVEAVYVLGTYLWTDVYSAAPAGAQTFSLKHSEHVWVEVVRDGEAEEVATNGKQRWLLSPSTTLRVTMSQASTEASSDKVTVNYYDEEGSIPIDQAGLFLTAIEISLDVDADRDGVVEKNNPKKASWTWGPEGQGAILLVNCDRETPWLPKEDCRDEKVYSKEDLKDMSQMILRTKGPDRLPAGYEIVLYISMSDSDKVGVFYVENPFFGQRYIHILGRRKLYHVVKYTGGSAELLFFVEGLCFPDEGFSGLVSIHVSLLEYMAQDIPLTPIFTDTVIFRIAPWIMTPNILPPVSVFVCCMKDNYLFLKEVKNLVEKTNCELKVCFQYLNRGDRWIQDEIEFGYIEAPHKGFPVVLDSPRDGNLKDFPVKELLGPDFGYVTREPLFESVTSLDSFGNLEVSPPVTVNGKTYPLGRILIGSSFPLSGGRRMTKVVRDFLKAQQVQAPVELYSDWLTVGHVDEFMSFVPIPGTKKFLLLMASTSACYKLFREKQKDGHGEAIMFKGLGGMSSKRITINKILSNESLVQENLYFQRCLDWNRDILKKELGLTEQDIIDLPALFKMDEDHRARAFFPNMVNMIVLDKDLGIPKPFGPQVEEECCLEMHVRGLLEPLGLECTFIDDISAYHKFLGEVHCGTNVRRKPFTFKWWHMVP

| remaining at 1 h, 0.2 μM [1] [%] | half-life at 0.2 μM [1] [h] | remaining at 1 h, 0.2 μM [2] [%] | half-life at 0.2 μM [2, 6] [h] | IC50 (PAD1) [µM] | IC50 (PAD4 [3]) [µM] | half-life at 0.2 μM [2, 7] [h] | %inhibition of PAD4, pre-incubation 10 min (PAD4 [4]) [%] | %inhibition of PAD4, pre-incubation 30 min (PAD4 [4]) [%] | IC50 (PAD2) [µM] | Compound | Cytotoxicity on A549 cells (A549 cells) | viability at 48 h, 500 µM (MTT cytotoxicity assay) [%] | IC50 at 48 h (MTT cytotoxicity assay) [µM] | t1/2 (pharmacokinetic studies) [5] [h] | t1/2 (pharmacokinetic studies) ([5]; in vivo) [h] |
| --- | --- | --- | --- | --- | --- | --- | --- | --- | --- | --- | --- | --- | --- | --- | --- |
| 51.8 ± 7.48 | 1.03 | 10.4 ± 1.42 | 0.302 | – | – | – | – | – | – | N=C(CCl)NCCC[C@H](NC(=O)c1ccc(-c2ccccc2)cc1)c1nc2ccccc2[nH]1 [BB-Cl-amidine, reference compound] | – | – | – | – | – |
| 90.3 ± 10.6 | > 1 | 75.9 ± 4.75 | > 1 | 194 ± 8.21 | 125 ± 10.2 | ~2.65 | 31.46 | 36.86 | 352 ± 21.3 | N=C(CO)NCCC[C@H](NC(=O)c1ccc(-c2ccccc2)cc1)c1nc2ccccc2[nH]1 [Compound 7] | no cytotoxicity | 26.8 | ~455 | – | – |
| 73.2 ± 1.89 | > 1 | 63 ± 4.85 | > 1 | 32 ± 0.78 | 46.5 ± 4.46 | ~1.45 | 49.28 | 51.44 | 74.9 ± 6.48 | O=C(CO)NCCC[C@H](NC(=O)c1ccc(-c2ccccc2)cc1)c1nc2ccccc2[nH]1 [Compound 8] | no cytotoxicity | 103 | > 500 | – | – |

More lines, now with the values behind:

| Compound | remaining at 1 h, 0.2 μM [1] [%] | half-life at 0.2 μM [1] [h] | remaining at 1 h, 0.2 μM [2] [%] | half-life at 0.2 μM [2, 6] [h] | IC50 (PAD1) [µM] | IC50 (PAD4 [3]) [µM] | half-life at 0.2 μM [2, 7] [h] | %inhibition of PAD4, pre-incubation 10 min (PAD4 [4]) [%] | %inhibition of PAD4, pre-incubation 30 min (PAD4 [4]) [%] | IC50 (PAD2) [µM] | Cytotoxicity on A549 cells (A549 cells) | viability at 48 h, 500 µM (MTT cytotoxicity assay) [%] | IC50 at 48 h (MTT cytotoxicity assay) [µM] | t1/2 (pharmacokinetic studies) [5] [h] | t1/2 (pharmacokinetic studies) ([5]; in vivo) [h] |
| --- | --- | --- | --- | --- | --- | --- | --- | --- | --- | --- | --- | --- | --- | --- | --- |
| N=C(CCl)NCCC[C@H](NC(=O)c1ccc(B(O)O)cc1)C(=O)NCc1ccccc1 [YJ-4B] | – | – | – | – | – | – | – | – | – | – | – | – | – | 0.35 | – |
| N=C(CCl)NCCC[C@H](Nc1ccc([N+](=O)[O-])c2nonc12)C(=O)NCc1ccccc1 [ZD-E-1] | – | – | – | – | – | – | – | – | – | – | – | – | – | – | 0.41 |
